# Experimental data taken from ChEMBL document CHEMBL1137259, “Tubeimoside V (1), a new cyclic bisdesmoside from tubers of Bolbostemma paniculatum, functions by inducing apoptosis in human glioblastoma U87MG cells” (Bioorg Med Chem Lett, 2006).
# Calls of active or inactive are those of the source. The calls are words filed in the database; no cut-off is given here.
# How the values were obtained:
# [1] = system: U-87 MG; experiment: Induction of apoptosis measured as down regulation of Bcl2 expression in human U87MG cell line by Western blot analysis at 7.0 uM after 24 hrs; assay type: functional, cell-based; conditions: U-87MG ATCC
# [2] = system: U-87 MG; experiment: Cell cycle arrest in U87MG cells by accumulation at G0/G1 phase at 2.6 uM after 12 hrs; assay type: functional, Homo sapiens, U-87MG ATCC
# [3] = system: U-87 MG; experiment: Cell cycle arrest in U87MG cells by accumulation at G0/G1 phase at 7.0 uM after 24 hrs; assay type: functional, Homo sapiens, U-87MG ATCC
# [4] = system: U-87 MG; experiment: Cell cycle arrest in U87MG cells by accumulation at S phase at 7.0 uM after 24 hrs; assay type: functional, Homo sapiens, U-87MG ATCC
# [5] = system: U-87 MG; experiment: Cell cycle arrest in U87MG cells by accumulation at SubG1 phase at 2.6 uM after 12 hrs; assay type: functional, Homo sapiens, U-87MG ATCC
# [6] = system: U-87 MG; experiment: Induction of apoptosis measured as up regulation of Bax expression in human U87MG cell line by Western blot analysis at 7.0 uM after 6 hrs; assay type: functional, cell-based; conditions: U-87MG ATCC
# [7] = system: U-87 MG; experiment: Cell cycle arrest in U87MG cells by accumulation at SubG1 phase at 3.6 uM after 24 hrs; assay type: functional, Homo sapiens, U-87MG ATCC
# [8] = system: U-87 MG; experiment: Cell cycle arrest in U87MG cells by accumulation at G2/M phase at 2.6 uM after 24 hrs; assay type: functional, Homo sapiens, U-87MG ATCC
# [9] = system: U-87 MG; experiment: Cell cycle arrest in U87MG cells by accumulation at S phase at 3.6 uM after 24 hrs; assay type: functional, Homo sapiens, U-87MG ATCC
# [10] = system: U-87 MG; experiment: Induction of apoptosis measured as down regulation of Bcl2 expression in human U87MG cell line by Western blot analysis at 7.0 uM after 6 hrs; assay type: functional, cell-based; conditions: U-87MG ATCC
# [11] = system: U-87 MG; experiment: Cell cycle arrest in U87MG cells by accumulation at SubG1 phase at 7.0 uM after 12 hrs; assay type: functional, Homo sapiens, U-87MG ATCC
# [12] = system: U-87 MG; experiment: Cell cycle arrest in U87MG cells by accumulation at G2/M phase at 7.0 uM after 12 hrs; assay type: functional, Homo sapiens, U-87MG ATCC
# [13] = system: U-87 MG; experiment: Cell cycle arrest in U87MG cells by accumulation at G2/M phase at 3.6 uM after 12 hrs; assay type: functional, Homo sapiens, U-87MG ATCC
# [14] = system: U-87 MG; experiment: Cell cycle arrest in U87MG cells by accumulation at SubG1 phase at 3.6 uM after 12 hrs; assay type: functional, Homo sapiens, U-87MG ATCC
# [15] = system: U-87 MG; experiment: Cell cycle arrest in U87MG cells by accumulation at G2/M phase at 3.6 uM after 24 hrs; assay type: functional, Homo sapiens, U-87MG ATCC
# [16] = system: U-87 MG; experiment: Cell cycle arrest in U87MG cells by accumulation at G0/G1 phase at 7.0 uM after 12 hrs; assay type: functional, Homo sapiens, U-87MG ATCC
# [17] = system: U-87 MG; experiment: Cell cycle arrest in U87MG cells by accumulation at G0/G1 phase at 3.6 uM after 24 hrs; assay type: functional, Homo sapiens, U-87MG ATCC
# [18] = system: U-87 MG; experiment: Cell cycle arrest in U87MG cells by accumulation at S phase at 3.6 uM after 12 hrs; assay type: functional, Homo sapiens, U-87MG ATCC
# [19] = system: U-87 MG; experiment: Cell cycle arrest in U87MG cells by accumulation at G2/M phase at 7.0 uM after 24 hrs; assay type: functional, Homo sapiens, U-87MG ATCC
# [20] = system: U-87 MG; experiment: Cell cycle arrest in U87MG cells by accumulation at SubG1 phase at 2.6 uM after 24 hrs; assay type: functional, Homo sapiens, U-87MG ATCC
# [21] = system: U-87 MG; experiment: Cell cycle arrest in U87MG cells by accumulation at S phase at 2.6 uM after 12 hrs; assay type: functional, Homo sapiens, U-87MG ATCC
# [22] = system: U-87 MG; experiment: Induction of apoptosis assessed as phosphatidylserine externalization in human U87MG cell line at 7.0 uM after 24 hrs by annexinV/PI assay; assay type: functional, cell-based; conditions: U-87MG ATCC
# [23] = system: U-87 MG; experiment: Cell cycle arrest in U87MG cells by accumulation at G2/M phase at 2.6 uM after 12 hrs; assay type: functional, Homo sapiens, U-87MG ATCC
# [24] = system: U-87 MG; experiment: Cell cycle arrest in U87MG cells by accumulation at G0/G1 phase at 2.6 uM after 24 hrs; assay type: functional, Homo sapiens, U-87MG ATCC
# [25] = system: U-87 MG; experiment: Cell cycle arrest in U87MG cells by accumulation at S phase at 2.6 uM after 24 hrs; assay type: functional, Homo sapiens, U-87MG ATCC
# [26] = system: U-87 MG; experiment: Induction of apoptosis measured as chromatin condensation in human U87MG cell line at 7.0 uM after 24 hrs by hoechst 33342 staining; assay type: functional, cell-based; conditions: U-87MG ATCC
# [27] = system: U-87 MG; experiment: Cell cycle arrest in U87MG cells by accumulation at G0/G1 phase at 3.6 uM after 12 hrs; assay type: functional, Homo sapiens, U-87MG ATCC
# [28] = system: U-87 MG; experiment: Cell cycle arrest in U87MG cells by accumulation at SubG1 phase at 7.0 uM after 24 hrs; assay type: functional, Homo sapiens, U-87MG ATCC
# [29] = system: U-87 MG; experiment: Antiproliferative activity against human U87MG cell line by MTT assay; assay type: functional, cell-based, U-87MG ATCC
# [30] = system: U-87 MG; experiment: Induction of apoptosis measured as up regulation of Bax expression in human U87MG cell line by Western blot analysis at 7.0 uM after 24 hrs; assay type: functional, cell-based; conditions: U-87MG ATCC
# [31] = system: U-87 MG; experiment: Cell cycle arrest in U87MG cells by accumulation at S phase at 7.0 uM after 12 hrs; assay type: functional, Homo sapiens, U-87MG ATCC
smiles,measurement,setting,value
C[C@@H]1O[C@H]2O[C@@H]3[C@H](OC[C@@H](O)[C@H]3O)OC(=O)[C@]34CCC(C)(C)CC3C3=CCC5[C@@]6(C)C[C@H](O)[C@H](O[C@@H]7O[C@H](CO)[C@@H](O)[C@H](O)[C@H]7O[C@H]7O[C@@H](COC(=O)C[C@](C)(O)CC(=O)O[C@@H]1[C@@H](O[C@@H]1OC[C@@H](O)[C@H](O)[C@H]1O)[C@H]2O)[C@H](O)[C@@H](O)[C@@H]7O)[C@@](C)(CO)C6CC[C@@]5(C)[C@]3(C)CC4 (stereo partly drawn) [TUBEIMOSIDE V],Activity,[1],Active
same,Activity,[2],50.1%
same,Activity,[3],53.3%
same,Activity,[4],37.1%
same,Activity,[5],4.1%
same,Activity,[6],Active
same,Activity,[7],20.8%
same,Activity,[8],17.7%
same,Activity,[9],34.2%
same,Activity,[10],Active
same,Activity,[11],18.3%
same,Activity,[12],14.1%
same,Activity,[13],17.6%
same,Activity,[14],8.9%
same,Activity,[15],12.3%
same,Activity,[16],53.3%
same,Activity,[17],53.5%
same,Activity,[18],31.4%
same,Activity,[19],9.6%
same,Activity,[20],9.1%
same,Activity,[21],27.6%
same,Activity,[22],Active
same,Activity,[23],22.3%
same,Activity,[24],51.3%
same,Activity,[25],31%
same,Activity,[26],Active
same,Activity,[27],51%
same,Activity,[28],42.3%
same,IC25,[29],2.6 µM
same,IC50,[29],3.6 µM
same,IC75,[29],7 µM
same,Activity,[30],Active
same,Activity,[31],32.6%
